# Results taken from patent US5382572A, “Alkyl and acyl substituted quinolines” (Schering Corporation, priority 1993, dated 1995).
# Read-outs that look alike come from different tables or passages of the source.
# Experiments:
# [1] = Compound toxicity assay: 3H-leucine incorporation (translational activity) in HeLa cells; format: cell-based; details: human, reduction of leucine incorporation, read-out: CYTOTOXICITY 3H-LEU ASSAY IC50
# Protocol: HeLa cells were treated with inhibitory compound for 24 hours, after which levels of translational activity were assayed.
# For assay of translational activity, HeLa cultures were grown to 80% confluency in 96 well microtiter plates, treated with appropriate concentrations of compound in 2% EMEM during an overnight incubation at 37° C., then rinsed with HBSS and overlaid with […] of 2% EMEM containing 8 μCi of tritiated leucine (141 Cμ/mMol, Amersham Corp., Arlington Heights Ill.). After a 1 hour incubation at 36.5° C., the cells were rinsed twice with phosphate buffered saline (PBS) and lysed in 400 μl/well of 1×PBS, 0.5% sodium dodecyl sulphate (SDS). After a 10 min incubation at 36.5° C., the contents of the well were transferred to a well in a Millititer HA microfiltration plate (Millipore Corp., Bedford, Mass.). The TCA-insoluble proteins were precipitated onto the filter disc by a 10-minute-fixation with 5% TCA, followed by filtration under vacuum and three 10-minute-rinses with 95% ethanol. The filters were dried at room temperature, cut from the millititer plate and transferred to scintillation vials. TCA precipitable counts were assayed in 5 ml of Scintisol (Isolab, Akron, Ohio). The inhibitory activity of a compound was plotted versus the concentration and an IC50 value (that concentration of the compound required to decrease cellular translational activity by 50%) was derived for each compound.
# Cytotoxicity refers to the IC50 values in the 3H-leucine (3H-Leu) incorporation. The IC50 values in this test refer to the concentration of the compound in micrograms/milliliter which reduces leucine incorporation by 50%.
# [2] = system: HSV-2 (strain MS); assay: HSV-β-gal assay: transient expression of beta-galactosidase in transfected HeLa cells superinfected with HSV-2; format: cell-based; details: Human alphaherpesvirus 2, HeLa, 24 h, inhibition of beta-galactosidase expression, MOI 5 pfu/cell, read-out: ANTI-HSV ACTIVITY HSV-β-GAL ASSAY IC50
# Protocol: HeLa and Vero cell cultures were maintained in Eagle's Minimal Essential Medium (EMEM) which was supplemented with glutamine, penicillin, streptomycin and 10% fetal calf serum (10% EMEM). Stock cultures of HSV-2 (strain MS available from ATCC VR-540) were grown in and harvested from Vero cells. Viral stocks were titered in Vero cells according to established procedures.
# Plasmid pON 245^ori- contains the promoter of the HSV-1 thymidine kinase (tk) gene located immediately 5' of the E. coli lac Z gene. In this arrangement, the tk promoter controls transcription from the bacterial gene in transient expression assays. Additionally, an SV40 polyadenylation signal is present at the 3'-end of the lac Z gene to allow for the efficient translation of the mRNA in eucaryotic cells. The expression of beta-galactosidase in a transient assay using pON 245^ori- is dependent upon superinfection of the transfected cells with HSV. […] For example, see European Patent Application No. 8302149.5 filed Mar. 11, 1988 and published Sep. 14th 1988 as 282,330, the disclosure of which is incorporated herein by reference thereto.
# HeLa cells were seeded into 96 well microtiter plates and allowed to grow to 80% confluency (approximately 35000 cells/well). One half microgram of plasmid pON 245^ori- DNA was introduced into the cells of each well by the […] precipitation technique (Grahman and Van der Eb, 1973). Four to six hours later, the cells were rinsed with Hank's Balanced Salt Solution (HBSS), overlaid with 10% EMEM and incubated at 37° C. At 24 hour post-transfection, cells were rinsed, overlaid with 10% EMEM again and re-incubated at 37° C. At 48 hours. post-transfection, cells were rinsed and overlaid with either EMEM containing 2% fetal calf serum (2% EMEM), 2% EM EM containing HSV-2 (strain MS, Multiplicity of Infection [moil =5 pfu/cell) or 2% EMEM containing HSV-2 and the appropriate concentration of the compound to be tested. Twenty-four hours later, the cells were harvested and assayed for beta-galactosidase activity as described below.
# (§1) All determinations of beta-galactosidase activity were performed in 96 well microtiter plates. The intracellular level of beta-galactosidase activity in each well was determined from cell lysates of the monolayer cultures. Aliquots were assayed by incubation in the presence of beta-galactosiclasesubstrate, 4-methyl-umbelliferyl-β-D-galactoside (MUG, 125 μg/ml, Sigma), for 2 hour. The generation of fluorescent product was quantified on a Microfluor microfluorimeter (Dynatech) after addition of 0.1M glycine, pH 10.3 (Spaete and Mocarski, 1985). The inhibitory activity of a compound was plotted versus the concentration and an IC50 value (the concentration of compound required to reduce beta-galactosidase expression by 50%) was obtained for each compound tested.
# Anti-HSV activity refers to the IC50 values in the HSV-β-gal assay which measures anti-viral activity in terms of inhibition of beta-galactosidase expression. The IC50 values refer to the concentration of the compound in micrograms/milliliter needed to reduce beta-galactosidase expression by 50%.
# [3] = system: antiviral activity of lidocaine or lidocaine hydrochloride; details: added to lidocaine or lidocaine hydrochloride; Haines et al.; cited from earlier work
# [4] = system: HSV-2, strain MS; assay: Prophylactic guinea pig model of HSV-2 infection; format: in vivo; details: test compounds 60 mg/kg s.c., T.I.D., 10 days, from 24 hours before infection; for MLS (Maximum Lesion Scores): scale of 1 (least) to 4 (severe), placebo 3; for NEUROLOGICAL DYSFUNCTIONS (percentage animals developing loss of bladder/hindlimb control): placebo 87
# Protocol: The in vive assessment of anti-HSV efficacy was determined in the prophylactic guinea pig model of HSV infection described by Stansberry et al (1982). Dosing of guinea pigs comprised an initial treatment with test compound given 24 hours prior to virus infection and subsequent administration of the compound every eight hours (T.I.D.) for a total of 10 days. Test compounds were administered subcutaneously in 0.5% buffered methyl celluslose at a dose of 60 mg per kg body weight of the animal. Animals were monitored daily for the development of genital lesions and neurological symptomology, both of which were recorded and compared to the results obtained with parallel groups which received placebo or acyclovir treatment. Efficacy was evaluated for each compound by scoring the ability of the compound to ameliorate genital lesions produced by infection with HSV-2, strain MS, expressed as Maximum Lesion Scores (MLS) on a scale of 1 (least lesion) to 4 (severe lesions).
# [5] = system: herpes virus infections; details: mammals; Haines et al.; cited from earlier work
# [6] = system: HSV oral and genital lesions; details: humans; Haines et al.; cited from earlier work
# [7] = system: HSV-2; details: cell culture; Haines et al., U.S. Pat. No. 4,757,088; cited from earlier work
# [8] = system: HSV-1; details: cell culture; Haines et al., U.S. Pat. No. 4,757,088; cited from earlier work
# [9] = CMV toxicity assay: tritiated leucine (3H-Leu) assay in HFF cells; format: cell-based; details: HFF cells (human foreskin fibroblast); read-out: CYTOTOXICITY 3H-LEU ASSAY IC50
# [10] = system: CMV (strain Towne); assay: CMV-β-Gal assay: beta-galactosidase transient expression assay with CMV; format: cell-based; details: Human betaherpesvirus 5, read-out: ANTI-CMV ACTIVITY CMV-β-Gal ASSAY IC50, CMV strain Towne
# Protocol: as §1
# Human foreskin fibroblast (HHF) cell cultures were grown in 10% EMEM. CMV (strain Towne received from Stanford University) was grown and titered in HHF cells. Plasmids pON 249 and pON 241 Δ NH3, containing CMV promoter genes, were used in the β-galactosidase transient expression assay as shown above.
Compound,CC50 at 24 h ([1]; first value),IC50 ([2]; first value),CC50 at 24 h ([1]; *Repeat),IC50 ([2]; *Repeat),further results
C=CCOC(=O)Cn1c(=O)c(C(OC(C)=O)OC(C)=O)c(OC(C)=O)c2ccccc21 [Formula 1.16],43 µg/mL,10 µg/mL,–,–,–
CC(C)(CO)[C@@H](O)C(=O)NCCCO [dexpanthenol],–,–,–,–,enhancement of antiviral activity of lidocaine or lidocaine hydrochloride [3]: significantly enhances the antiviral activity
CCCCCCn1c(=O)c(C(OC(C)=O)OC(C)=O)c(OC(C)=O)c2cc(C)ccc21 [Formula 1.9],32 µg/mL,6 µg/mL,37 µg/mL,8 µg/mL,MLS (Maximum Lesion Scores) [4]: 2.5; NEUROLOGICAL DYSFUNCTIONS (percentage animals developing loss of bladder/hindlimb control) [4]: 75%
CC(=O)Oc1c(C(OC(C)=O)OC(C)=O)c(=O)n(C)c2ccccc12 [Formula 1.5],25 µg/mL,4 µg/mL,25 µg/mL,3 µg/mL,MLS (Maximum Lesion Scores) [4]: 1.3; NEUROLOGICAL DYSFUNCTIONS (percentage animals developing loss of bladder/hindlimb control) [4]: 0%
CCC(=O)Oc1c(C(OC(=O)CC)OC(=O)CC)c(=O)n(C)c2ccccc12 [Formula 1.12],29 µg/mL,8 µg/mL,29 µg/mL,7 µg/mL,–
CCCCCCn1c(=O)c(C(OC(C)=O)OC(C)=O)c(OC)c2ccccc21 [Formula 1.1],6 µg/mL,1.4 µg/mL,–,–,–
COc1c(C(OC(C)=O)OC(C)=O)c(=O)n(C)c2ccccc12 [Formula 1.13],18 µg/mL,8 µg/mL,–,–,–
CCCCCCn1c(=O)c(C(OC)OC)c(OC)c2cc(C)ccc21 [Formula 1.17],30 µg/mL,5 µg/mL,–,–,–
CC(=O)Oc1c(C(OC(C)=O)OC(C)=O)c(=O)n(Cc2ccccc2)c2ccc(C)cc12 [Formula 1.10],18 µg/mL,7 µg/mL,–,–,–
CC(=O)Oc1ccc2c(c1)c(OC(C)=O)c(C(OC(C)=O)OC(C)=O)c(=O)n2Cc1ccccc1 [Formula 1.2],21.5 µg/mL,3 µg/mL,3 µg/mL,2.5 µg/mL,–
CC(=O)Oc1c(C(OC(C)=O)OC(C)=O)c(=O)n(-c2ccccc2)c2ccccc12 [Formula 1.7],20 µg/mL,4 µg/mL,18 µg/mL,4 µg/mL,–
"CCN(CC)CC(=O)Nc1c(C)cccc1C [lidocaine, 2-(diethylamino)-N-(2,6-dimethylphenyl)acetamide]",–,–,–,–,treatment of herpes virus infections [5]: is able to treat herpes virus infections of mammals; treatment of HSV oral and genital lesions [6]: particularly effective in the treatment of HSV oral and genital lesions in humans; antiviral activity against HSV-2 [7]: is an antiviral agent in cell culture against HSV-1 and HSV-2; antiviral activity against HSV-1 [8]: is an antiviral agent in cell culture against HSV-1 and HSV-2
COc1c(C(OC(C)=O)OC(C)=O)c(=O)n(Cc2ccccc2)c2ccc(C)cc12 [Formula 1.3],2.7 µg/mL,3 µg/mL,–,–,MLS (Maximum Lesion Scores) [4]: 1.8; NEUROLOGICAL DYSFUNCTIONS (percentage animals developing loss of bladder/hindlimb control) [4]: 0%
CC(=O)Oc1c(C(OC(C)=O)OC(C)=O)c(=O)n(Cc2ccccc2)c2ccc(OCc3ccccc3)cc12 [Formula 1.15],29 µg/mL,10 µg/mL,40 µg/mL,10 µg/mL,–
CCCCC(=O)Oc1c(C(OC(=O)CCCC)OC(=O)CCCC)c(=O)n(C)c2ccccc12 [Formula 1.8],30 µg/mL,5 µg/mL,> 10 µg/mL,4 µg/mL,–
COc1ccc(OCCCOCn2c(=O)c(C(OC(C)=O)OC(C)=O)c(OC(C)=O)c3ccccc32)c(Cl)c1 [Formula 1.14],30 µg/mL,9 µg/mL,–,–,MLS (Maximum Lesion Scores) [4]: 1.8; NEUROLOGICAL DYSFUNCTIONS (percentage animals developing loss of bladder/hindlimb control) [4]: 12%; CC50 [9]: 50 µg/mL; IC50 ([10]; first value): 16 µg/mL; IC50 ([10]; second value marked * (repeat)): 18 µg/mL
CC(=O)Oc1c(C(OC(C)=O)OC(C)=O)c(=O)n(Cc2ccccc2)c2ccccc12 [Formula 1.6],32 µg/mL,4 µg/mL,37 µg/mL,8 µg/mL,CC50 [9]: 28 µg/mL; IC50 ([10]; first value): 7 µg/mL; IC50 ([10]; second value marked * (repeat)): 8 µg/mL
CCCCCCCn1c(=O)c(C(OC(C)=O)OC(C)=O)c(OC(C)=O)c2ccccc21 [Formula 1.11],25 µg/mL,8 µg/mL,43 µg/mL,10 µg/mL,–
"Nc1nc2c(ncn2COCCO)c(=O)[nH]1 [Acyclovir, 9-[(2-hydroxyethoxy)methyl]guanine, reference compound]",–,–,–,–,MLS (Maximum Lesion Scores) [4]: 1.5; NEUROLOGICAL DYSFUNCTIONS (percentage animals developing loss of bladder/hindlimb control) [4]: 50%
CC(C)(CO)[C@@H](O)C(=O)NCCC(=O)O [pantothenic acid],–,–,–,–,enhancement of antiviral activity of lidocaine or lidocaine hydrochloride [3]: significantly enhances the antiviral activity
CCCCCCn1c(=O)c(C(OC(C)=O)OC(C)=O)c(OC)c2cc(C)ccc21 [Formula 1.4],2.5 µg/mL,3 µg/mL,–,–,–
